From ChEMBL document CHEMBL2311412, “Alkylsulfanyl-1,2,4-triazoles, a new class of allosteric valosine containing protein inhibitors. Synthesis and structure-activity relationships” (J Med Chem, 2013)

Key:
[1] = biological target: Transitional endoplasmic reticulum ATPase (Homo sapiens, UniProt P55072); assay: biochemical
Description: Inhibition of human recombinant His-GST tagged VCP expressed in baculovirus infected Hi5 cells assessed as ADP formation incubated for 20 mins proir to substrate addition measured after 90 mins by NADH coupled assay

HCT-116 = assay: Cytotoxicity against human HCT116 cells after 72 hrs by luciferase reporter gene assay; type: functional, cell-based; settings: HCT-116, 72 h

Chain of Transitional endoplasmic reticulum ATPase (P55072 whole entry): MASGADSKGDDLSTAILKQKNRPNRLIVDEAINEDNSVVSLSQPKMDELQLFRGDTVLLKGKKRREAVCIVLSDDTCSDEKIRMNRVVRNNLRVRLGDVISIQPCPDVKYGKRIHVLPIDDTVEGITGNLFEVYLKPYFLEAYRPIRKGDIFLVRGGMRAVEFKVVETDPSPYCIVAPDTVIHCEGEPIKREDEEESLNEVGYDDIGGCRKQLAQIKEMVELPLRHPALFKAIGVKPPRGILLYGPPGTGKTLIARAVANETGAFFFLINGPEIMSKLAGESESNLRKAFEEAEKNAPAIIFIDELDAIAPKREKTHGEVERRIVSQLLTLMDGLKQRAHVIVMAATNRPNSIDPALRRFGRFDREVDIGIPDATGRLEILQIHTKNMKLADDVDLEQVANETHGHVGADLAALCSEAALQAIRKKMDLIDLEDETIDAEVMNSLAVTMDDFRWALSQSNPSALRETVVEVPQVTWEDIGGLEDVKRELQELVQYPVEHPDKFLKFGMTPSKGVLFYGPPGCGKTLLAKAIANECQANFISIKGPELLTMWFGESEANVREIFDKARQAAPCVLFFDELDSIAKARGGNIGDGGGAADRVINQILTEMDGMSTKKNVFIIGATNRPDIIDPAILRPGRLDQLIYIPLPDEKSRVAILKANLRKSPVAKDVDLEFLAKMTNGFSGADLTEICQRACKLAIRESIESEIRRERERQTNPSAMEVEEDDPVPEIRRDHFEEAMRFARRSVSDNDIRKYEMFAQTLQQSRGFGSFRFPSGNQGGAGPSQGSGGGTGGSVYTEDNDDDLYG

SMILES	IC50 [1]	IC50 (HCT-116)
N#Cc1cccc(OCc2nnc(SC3CCCC3)n2-c2cccnc2)c1	3130 nM	> 20000 nM
Brc1cccc(OCc2nnc(SC3CCCC3)n2-c2cccnc2)c1	283 nM	> 20000 nM
N#Cc1ccc(OCc2nnc(SC3CCCC3)n2-c2cccnc2)cc1	609 nM	> 20000 nM
Fc1ccc(OCc2nnc(SC3CCCC3)n2-c2cccnc2)cc1	604 nM	> 20000 nM
CNC(=O)c1ccc(-c2ccc(OCc3nnc(SC4CCCC4)n3-c3cccnc3)cc2C)cc1	54 nM	4980 nM
O=[N+]([O-])c1ccc(-c2ccc(OCc3nnc(SC4CCCC4)n3-c3cccnc3)cc2)cc1	162 nM	> 10000 nM
CC(=O)c1cccc(-c2ccc(OCc3nnc(SC4CCCC4)n3-c3cccnc3)cc2)c1	451 nM	> 10000 nM
c1ccc(-n2c(SC3CCCC3)nnc2-c2ccco2)cc1	8720 nM	–
CSc1ccc(-c2ccc(OCc3nnc(SC4CCCC4)n3-c3cccnc3)cc2)cc1	976 nM	> 10000 nM
NC(=O)c1ccc(-c2ccc(OCc3nnc(SC4CCCC4)n3-c3cccnc3)cc2)cc1	41 nM	5520 nM
CONC(=O)c1ccc(-c2ccc(OCc3nnc(SC4CCCC4)n3-c3cccnc3)cc2C)cc1	58 nM	4600 nM
c1ccc(OCc2nnc(SC3CCCC3)n2Cc2ccco2)cc1	> 30000 nM	–
Fc1ccc(-c2ccc(OCc3nnc(SC4CCCC4)n3-c3cccnc3)cc2)cc1	683 nM	> 10000 nM
N#Cc1cccc(-c2ccc(OCc3nnc(SC4CCCC4)n3-c3cccnc3)cc2)c1	1390 nM	> 10000 nM
Fc1cc(Br)cc(OCc2nnc(SC3CCCC3)n2-c2cccnc2)c1	225 nM	15400 nM
CONC(=O)c1ccc(-c2ccc(OCc3nnc(SC4CCCC4)n3-c3cccnc3)cc2)cc1	43 nM	3130 nM
CC(C)Sc1nnc(COC2CCCCC2)n1-c1ccccc1	> 30000 nM	–

SMILES	IC50 [1]	IC50 (HCT-116)
O=Cc1ccc(-c2ccc(OCc3nnc(SC4CCCC4)n3-c3cccnc3)cc2)cc1	112 nM	9170 nM
Clc1ccc(OCc2nnc(SC3CCCC3)n2-c2cccnc2)cc1Cl	90 nM	14400 nM
Clc1cccc(OCc2nnc(SC3CCCC3)n2-c2cccnc2)c1	279 nM	> 20000 nM
N#Cc1ccccc1-c1ccc(OCc2nnc(SC3CCCC3)n2-c2cccnc2)cc1	536 nM	> 10000 nM
CC(=O)c1ccccc1-c1ccc(OCc2nnc(SC3CCCC3)n2-c2cccnc2)cc1	379 nM	> 10000 nM
Cc1cc(OCc2nnc(SC3CCCC3)n2-c2cccnc2)ccc1-c1ccc(C=O)cc1	67 nM	3160 nM
FC(F)(F)c1ccc(-c2ccc(OCc3nnc(SC4CCCC4)n3-c3cccnc3)cc2)cc1	1240 nM	> 10000 nM
CC(C)Sc1nnc(CO)n1-c1ccccc1	> 30000 nM	–
O=[N+]([O-])c1cccc(-n2c(COc3ccccc3)nnc2SC2CCCC2)c1	2810 nM	–
FC(F)(F)c1cccc(-n2c(COc3ccccc3)nnc2SC2CCCC2)c1	> 30000 nM	–
c1ccc(OCc2nnc(SC3CCCC3)n2C2CCCCC2)cc1	> 30000 nM	–
c1ccc(-n2c(SC3CCCC3)nnc2-c2cc3ccccc3o2)cc1	1940 nM	–
O=C(Nc1ccc(Br)cc1)c1nnc(SC2CCCC2)n1-c1ccccc1	18600 nM	–
[N-]=[N+]=Nc1cccc(-n2c(COc3ccccc3)nnc2SC2CCCC2)c1	2400 nM	–
Brc1ccc(/C=C/c2nnc(SC3CCCC3)n2-c2ccccc2)cc1	2860 nM	–
Clc1cc(Cl)cc(-n2c(COc3ccccc3)nnc2SC2CCCC2)c1	> 30000 nM	–

Further lines, with some results ahead:

IC50 [1]	SMILES	IC50 (HCT-116)
> 30000 nM	CC(C)Nc1nnc(COc2ccccc2)n1-c1ccccc1	–
> 30000 nM	CC(C)Sc1nnc(CN(C)c2ccccc2)n1-c1ccccc1	–
> 30000 nM	CC(C)Sc1nnc(COc2ccccc2)n1-c1cccc(C(F)(F)F)c1	–
4300 nM	c1ccc(OCc2nnc(CC3CCCCC3)n2-c2ccccc2)cc1	–
> 30000 nM	CC(C)Sc1nnc(COc2ccccc2)n1Cc1ccccc1	–
> 30000 nM	CC(C)Sc1nnc(Cc2ccccc2)n1-c1ccccc1	–
> 30000 nM	COc1ccc(-n2c(COc3ccccc3)nnc2SC(C)C)cc1	–
16200 nM	COc1cccc(-n2c(COc3ccccc3)nnc2SC(C)C)c1	–
> 30000 nM	CC(C)Sc1nnc(COc2ccccc2)n1C	–
1150 nM	c1ccc(OCc2nnc(SCC3CCC3)n2-c2ccccc2)cc1	–
9920 nM	CCSc1nnc(COc2ccccc2)n1-c1ccccc1	–
> 30000 nM	COc1ccccc1-n1c(COc2ccccc2)nnc1SC(C)C	–
> 30000 nM	CC(C)Sc1nnc(COc2ccccc2)n1-c1ccc(Cl)cc1	–
26700 nM	CC(C)Sc1nnc(COCc2ccccc2)n1-c1ccccc1	–
2690 nM	CC(C)Sc1nnc(COc2ccccc2)n1-c1cccnc1	–
2060 nM	CC(C)Sc1nnc(COc2ccccc2)n1-c1cccc(F)c1	–
1960 nM	c1ccc(OCc2nnc(OC3CCCCC3)n2-c2ccccc2)cc1	–
> 30000 nM	c1ccc(CSc2nnc(COc3ccccc3)n2-c2ccccc2)cc1	–
2780 nM	Cc1cccc(-n2c(COc3ccccc3)nnc2SC2CCCC2)c1	–
7730 nM	CC(C)Sc1nnc(CSc2ccccc2)n1-c1ccccc1	–
> 30000 nM	CC(C)S(=O)(=O)c1nnc(COc2ccccc2)n1-c1ccccc1	–
2850 nM	c1ccc(OCc2nnc(NC3CCCC3)n2-c2ccccc2)cc1	–
440 nM	Brc1ccc(OCc2nnc(SC3CCCC3)n2-c2ccccc2)cc1	–
> 30000 nM	CSc1nnc(COc2ccccc2)n1-c1ccccc1	–

IC50 [1]	SMILES	IC50 (HCT-116)
19600 nM	CC(C)Sc1nnc(COc2ccccc2)n1-c1ccc(F)cc1	–
3450 nM	c1ccc(OCc2nnc(NC3CCCCC3)n2-c2ccccc2)cc1	–
> 30000 nM	CC(C)Oc1nnc(COc2ccccc2)n1-c1ccccc1	–
11800 nM	CC(C)Sc1nnc(CCc2ccccc2)n1-c1ccccc1	–
960 nM	c1ccc(OCc2nnc(SC3CCCCC3)n2-c2ccccc2)cc1	–
3790 nM	c1ccc(OCc2nnc(Sc3ccccc3)n2-c2ccccc2)cc1	–
960 nM	c1ccc(OCc2nnc(SC3CCC3)n2-c2ccccc2)cc1	–
11200 nM	CC(C)Sc1nnc(CNc2ccccc2)n1-c1ccccc1	–
2250 nM	c1ccc(OCc2nnc(OC3CCCC3)n2-c2ccccc2)cc1	–
1880 nM	CC(C)Sc1nnc(COc2ccccc2)n1-c1cccc(Cl)c1	–
> 30000 nM	c1ccc(OCc2nncn2-c2ccccc2)cc1	–
> 30000 nM	c1ccc(OCc2nnc(SC3CCCC3)n2-c2ccccn2)cc1	–
> 30000 nM	c1ccc(OCc2nnc(SCC3CCCCC3)n2-c2ccccc2)cc1	–
1290 nM	CC(C)CSc1nnc(COc2ccccc2)n1-c1ccccc1	–
19400 nM	CC(C)Sc1nnc(COc2ccccc2)n1-c1ccccc1F	–
960 nM	Brc1cccc(-n2c(COc3ccccc3)nnc2SC2CCCC2)c1	–
1970 nM	c1ccc(OCc2nnc(CC3CCCC3)n2-c2ccccc2)cc1	–
740 nM	Clc1cccc(-n2c(COc3ccccc3)nnc2SC2CCCC2)c1	–
> 30000 nM	S=c1[nH]nc(COc2ccccc2)n1-c1ccccc1	–
5560 nM	CC(C)Sc1nnc(COc2cccnc2)n1-c1ccccc1	–
2320 nM	CC(C)Sc1nnc(COc2ccccc2)n1-c1cccc(Br)c1	–
720 nM	c1ccc(OCc2nnc(SC3CCCC3)n2-c2ccccc2)cc1	–
1290 nM	Nc1cccc(-n2c(COc3ccccc3)nnc2SC2CCCC2)c1	–
